Measurements as given in publication PMC5807445, “A printable hydrogel microarray for drug screening avoids false positives associated with promiscuous aggregating inhibitors” (Nature Communications, 2018).

Assays:
TEM-1 β-lac [1] = molecular target: T1, TEM-1 β-lac (Escherichia coli, UniProt P62593); test: Printed hydrogel-based β-lac assay (nitrocefin, colorimetric image analysis); format: biochemical; details: promiscuous aggregating inhibitors; starting concentration 100 μM
Method: Inhibitor solutions and nitrocefin (a colorimetric β-lac substrate) were subsequently deposited on the microzones at different concentrations using a high-throughput dispensing robot. The resulting colorimetric read-out of β-lac activity was quantified via image analysis.
POH ink solution was prepared with a final concentration of 50 nM β-lac and used to print hydrogel spots on a 96-well paper microzone plate as described previously. […] The inhibitor was incubated with the printed β-lac for 20 min, after which the assay was initiated with the addition of 5 μl of nitrocefin (500 μM) to each microzone. […] Images were taken with a Canon DSLR camera (operated in manual focus mode without flash) after 25 min. The wax-printed background was filtered out using GIMP software (Version 2.8.16). Image analysis was performed using Fiji, with the converted substrate color extracted using the Color Deconvolution plugin. Extracted images were inverted and converted to 8 bit grayscale images. The intensity of each sample was measured and presented as a ratio of the control image (i.e., a microzone not treated with inhibitor). Calculation of IC50 values was carried out in OriginPro by plotting the calculated percentage inhibition against the added inhibitor concentration. Curve fitting was performed with the dose–response function (OriginLab Corporation, Northampton, MA, USA).

TEM-1 β-lac [2] = molecular target: T1, TEM-1 β-lac; test: Solution-based β-lac assay (nitrocefin hydrolysis, absorbance at 492 nm); format: biochemical; details: promiscuous aggregating inhibitors; diluted from 10 mM DMSO stocks
[3] = Promiscuous aggregating inhibitor size measurement by dynamic light scattering (DLS); format: physicochemical; details: 100 μM solutions; for Aggregate size (Z-average diameter, DLS) / Polydispersity (DLS): 23°C
Method: Promiscuous aggregating inhibitor size measurement
Dynamic light scattering measurements were performed using a Zetasizer Nano ZS instrument (Malvern). The intensity of backscattered light was measured at a 173° angle. Data collection and analysis were performed using the Dispersion Technology Software (version 6.0) from Malvern. Samples of Rottlerin, BIS IX and TIPT at 100 μM concentrations were analyzed in a plastic cuvette with a 10 mm path length. Prior to measurement, samples were equilibrated for 120 s at 23°C. For each sample, 10 runs were performed with three repetitions. The intensity size distribution, Z-average diameter and polydispersity index was collected for each sample. Note that no significant signal was acquired from DLS measurements on the true inhibitors, confirming their solution state.

β-lactamase = details: reported literature values; cited from earlier work

T1 sequence (P62593 24-286 limits assumed): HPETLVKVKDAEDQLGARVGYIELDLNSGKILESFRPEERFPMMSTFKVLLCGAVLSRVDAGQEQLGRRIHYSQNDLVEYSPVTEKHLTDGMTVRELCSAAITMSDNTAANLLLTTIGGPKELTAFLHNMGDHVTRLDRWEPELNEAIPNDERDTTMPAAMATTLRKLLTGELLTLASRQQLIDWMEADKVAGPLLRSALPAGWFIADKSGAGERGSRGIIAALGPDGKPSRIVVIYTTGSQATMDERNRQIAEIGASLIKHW

[H]/N=C(/N)SCCCn1cc(C2=C(c3cn(C)c4ccccc34)C(=O)NC2=O)c2ccccc21 [BIS IX, bisindolylmaleimide IX]
Specific inhibition of β-lac in the hydrogel-based assay (TEM-1 β-lac [1]): no specific inhibition
Inhibition of β-lac in the solution-based assay (false-positive hit) (TEM-1 β-lac [2]): inhibited
Particle size range of aggregates (DLS intensity distribution) [3]: 50-800 nm
Aggregate size (Z-average diameter, DLS) [3]: 365 ± 9 nm
Polydispersity (DLS) [3]: 0.36 ± 0.02

CC(=O)c1c(O)c(C)c(O)c(Cc2c(O)c3c(c(C(=O)/C=C/c4ccccc4)c2O)OC(C)(C)C=C3)c1O [Rottlerin, rottlerin]
Specific inhibition of β-lac in the hydrogel-based assay (TEM-1 β-lac [1]): no specific inhibition
Inhibition of β-lac in the solution-based assay (false-positive hit) (TEM-1 β-lac [2]): inhibited
Particle size range of aggregates (DLS intensity distribution) [3]: 50-800 nm
Aggregate size (Z-average diameter, DLS) [3]: 188 ± 1 nm
Polydispersity (DLS) [3]: 0.24 ± 0.01

CC1(C)[C@H](C(=O)O)N2C(=O)C[C@H]2S1(=O)=O [Sulbactam, sulbactam]
IC50 (β-lactamase): 6.1 µM

O=C1OC(c2cc(I)c(O)c(I)c2)(c2c(I)cc(O)cc2I)c2ccccc21 (centres unmarked) [TIPT, tetraiodophenolphthalein]
Specific inhibition of β-lac in the hydrogel-based assay (TEM-1 β-lac [1]): no specific inhibition
Inhibition of β-lac in the solution-based assay (false-positive hit) (TEM-1 β-lac [2]): inhibited
Particle size range of aggregates (DLS intensity distribution) [3]: 50-800 nm
Aggregate size (Z-average diameter, DLS) [3]: 154 ± 1 nm
Polydispersity (DLS) [3]: 0.16 ± 0.02

C[C@]1(Cn2ccnn2)[C@H](C(=O)O)N2C(=O)C[C@H]2S1(=O)=O [Tazobactam, tazobactam]
IC50 (β-lactamase): 0.04 µM
